ChEMBL document CHEMBL4308841, “Synthesis, in vitro antiproliferative activity, and kinase inhibitory effects of pyrazole-containing diarylureas and diarylamides” (Eur J Med Chem, 2018)

Tests used:
[1] = tested on: NCI-H226; experiment: Growth inhibition of human NCI-H226 cells incubated for 48 hrs by sulforhodamine B assay; type: functional, cell-based; conditions: NCI-H226, 48 h
[2] = tested on: HCT-116; experiment: Growth inhibition of human HCT116 cells incubated for 48 hrs by sulforhodamine B assay; type: functional, cell-based; conditions: HCT-116, 48 h
[3] = tested on: KM12; experiment: Growth inhibition of human KM12 cells incubated for 48 hrs by sulforhodamine B assay; type: functional, cell-based; conditions: KM12, 48 h
[4] = tested on: SF-268; experiment: Growth inhibition of human SF268 cells incubated for 48 hrs by sulforhodamine B assay; type: functional, cell-based; conditions: SF-268, 48 h
[5] = tested on: UACC-62; experiment: Growth inhibition of human UACC62 cells incubated for 48 hrs by sulforhodamine B assay; type: functional, cell-based; conditions: UACC-62, 48 h
[6] = tested on: ACHN; experiment: Growth inhibition of human ACHN cells incubated for 48 hrs by sulforhodamine B assay; type: functional, cell-based
[7] = tested on: CAKI-1; experiment: Growth inhibition of human Caki1 cells incubated for 48 hrs by sulforhodamine B assay; type: functional, cell-based; conditions: CAKI-1, 48 h
[8] = tested on: DU-145; experiment: Growth inhibition of human DU145 cells incubated for 48 hrs by sulforhodamine B assay; type: functional, cell-based; conditions: DU-145, 48 h
[9] = tested on: NCI-H23; experiment: Growth inhibition of human NCI-H23 cells assessed as cell growth at 0.01 uM incubated for 48 hrs by sulforhodamine B assay relative to control; type: functional; conditions: NCI-H23, 48 h, read-out: Activity
[10] = tested on: SNB-75; experiment: Growth inhibition of human SNB75 cells assessed as cell growth at 0.01 uM incubated for 48 hrs by sulforhodamine B assay relative to control; type: functional; conditions: SNB-75, 48 h, read-out: Activity
[11] = tested on: SK-MEL-5; experiment: Growth inhibition of human SK-MEL-5 cells assessed as cell growth at 0.01 uM incubated for 48 hrs by sulforhodamine B assay relative to control; type: functional; conditions: SK-MEL-5, 48 h, read-out: Activity
[12] = tested on: MDA-MB-468; experiment: Growth inhibition of human MDA-MB-468 cells assessed as cell growth at 0.01 uM incubated for 48 hrs by sulforhodamine B assay relative to control; type: functional; conditions: MDA-MB-468, 48 h, read-out: Activity
[13] = tested on: NCI-H226; experiment: Growth inhibition of human NCI-H226 cells assessed as cell growth at 0.1 uM incubated for 48 hrs by sulforhodamine B assay relative to control; type: functional; conditions: NCI-H226, 48 h, read-out: Activity
[14] = tested on: NCI-H23; experiment: Growth inhibition of human NCI-H23 cells assessed as cell growth at 0.1 uM incubated for 48 hrs by sulforhodamine B assay relative to control; type: functional; conditions: NCI-H23, 48 h, read-out: Activity
[15] = tested on: U-251; experiment: Growth inhibition of human U251 cells assessed as cell growth at 0.1 uM incubated for 48 hrs by sulforhodamine B assay relative to control; type: functional; conditions: U-251, 48 h, read-out: Activity
[16] = tested on: SK-MEL-28; experiment: Growth inhibition of human SK-MEL-28 cells assessed as cell growth at 0.1 uM incubated for 48 hrs by sulforhodamine B assay relative to control; type: functional; conditions: SK-MEL-28, 48 h, read-out: Activity
[17] = tested on: OVCAR-8; experiment: Growth inhibition of human OVCAR8 cells assessed as cell growth at 0.1 uM incubated for 48 hrs by sulforhodamine B assay relative to control; type: functional; conditions: OVCAR-8, 48 h, read-out: Activity
[18] = tested on: SNB-19; experiment: Growth inhibition of human SNB19 cells assessed as cell growth at 1 uM incubated for 48 hrs by sulforhodamine B assay relative to control; type: functional; conditions: SNB-19, 48 h, read-out: Activity
[19] = tested on: UACC-62; experiment: Growth inhibition of human UACC62 cells assessed as cell growth at 1 uM incubated for 48 hrs by sulforhodamine B assay relative to control; type: functional; conditions: UACC-62, 48 h, read-out: Activity
[20] = tested on: OVCAR-4; experiment: Growth inhibition of human OVCAR4 cells assessed as cell growth at 1 uM incubated for 48 hrs by sulforhodamine B assay relative to control; type: functional; conditions: OVCAR-4, 48 h, read-out: Activity
[21] = tested on: RXF 393; experiment: Growth inhibition of human RXF393 cells assessed as cell growth at 1 uM incubated for 48 hrs by sulforhodamine B assay relative to control; type: functional; conditions: RXF 393, 48 h, read-out: Activity
[22] = tested on: SN12C; experiment: Growth inhibition of human SN12C cells assessed as cell growth at 1 uM incubated for 48 hrs by sulforhodamine B assay relative to control; type: functional; conditions: read-out: Activity
[23] = tested on: RPMI-8226; experiment: Growth inhibition of human RPMI8226 cells assessed as cell growth at 100 uM incubated for 48 hrs by sulforhodamine B assay relative to control; type: functional; conditions: RPMI-8226, 48 h, read-out: Activity
[24] = tested on: SR; experiment: Growth inhibition of human SR cells assessed as cell growth at 100 uM incubated for 48 hrs by sulforhodamine B assay relative to control; type: functional; conditions: read-out: Activity
[25] = tested on: KM12; experiment: Growth inhibition of human KM12 cells assessed as cell growth at 100 uM incubated for 48 hrs by sulforhodamine B assay relative to control; type: functional; conditions: KM12, 48 h, read-out: Activity
[26] = tested on: UACC-62; experiment: Growth inhibition of human UACC62 cells assessed as cell growth at 100 uM incubated for 48 hrs by sulforhodamine B assay relative to control; type: functional; conditions: UACC-62, 48 h, read-out: Activity
[27] = tested on: PC-3; experiment: Growth inhibition of human PC3 cells assessed as cell growth at 100 uM incubated for 48 hrs by sulforhodamine B assay relative to control; type: functional; conditions: PC-3, 48 h, read-out: Activity
[28] = read-out: LC50 (the source's name)
[29] = read-out: pLC50 (the source's name) (converted)

`COc1cc(Cl)cc(-c2nn(-c3cccc(NC(=O)Nc4ccc(Cl)c(Cl)c4)c3)cc2-c2ccncc2)c1` was tested, and the GI50 ([1]; read-out: GI50) was 3.06 µM, the LC50 ([1]; read-out: LC50) was greater than 100 µM and the TGI ([1]; read-out: TGI) was greater than 100 µM. For the same molecule, the GI50 ([1]; read-out: pGI50 (converted)) was 3.09 µM, the LC50 ([1]; read-out: pLC50 (converted)) was greater than 100 µM and the TGI ([1]; read-out: pTGI (converted)) was greater than 100 µM. For the same molecule, the IC50 [2] was 2.02 µM, the GI50 ([2]; read-out: GI50) was 2.02 µM and the CC50 [2, 28] was greater than 100 µM. For the same molecule, the TGI ([2]; read-out: TGI) was greater than 100 µM, the GI50 ([2]; read-out: pGI50 (converted)) was 2.04 µM and the CC50 [2, 29] was greater than 100 µM. The TGI ([2]; read-out: pTGI (converted)) was greater than 100 µM, the GI50 ([3]; read-out: GI50) was 2.02 µM and the CC50 [3, 28] was greater than 100 µM. It also gave a TGI ([3]; read-out: TGI) of 10.8 µM, a GI50 ([3]; read-out: pGI50 (converted)) of 2.04 µM and a CC50 [3, 29] greater than 100 µM. The TGI ([3]; read-out: pTGI (converted)) was 10.7 µM, the GI50 ([4]; read-out: GI50) was 3.27 µM and the CC50 [4, 28] was greater than 100 µM. It also gave a TGI ([4]; read-out: TGI) greater than 100 µM, a GI50 ([4]; read-out: pGI50 (converted)) of 3.24 µM and a CC50 [4, 29] greater than 100 µM. The TGI ([4]; read-out: pTGI (converted)) was greater than 100 µM, the IC50 [5] was 2.4 µM and the GI50 ([5]; read-out: GI50) was 2.4 µM. For the same molecule, the CC50 [5, 28] was greater than 100 µM, the TGI ([5]; read-out: TGI) was 16.3 µM and the GI50 ([5]; read-out: pGI50 (converted)) was 2.4 µM. It also gave a CC50 [5, 29] greater than 100 µM, a TGI ([5]; read-out: pTGI (converted)) of 16.2 µM and a GI50 ([6]; read-out: GI50) of 3.23 µM. The CC50 [6, 28] was greater than 100 µM, the TGI ([6]; read-out: TGI) was greater than 100 µM and the GI50 ([6]; read-out: pGI50 (converted)) was 3.24 µM. For the same molecule, the CC50 [6, 29] was greater than 100 µM, the TGI ([6]; read-out: pTGI (converted)) was greater than 100 µM and the GI50 ([7]; read-out: GI50) was 2.38 µM. For the same molecule, the CC50 [7, 28] was greater than 100 µM, the TGI ([7]; read-out: TGI) was 15.7 µM and the GI50 ([7]; read-out: pGI50 (converted)) was 2.4 µM. It also gave a CC50 [7, 29] greater than 100 µM, a TGI ([7]; read-out: pTGI (converted)) of 16.6 µM and a GI50 ([8]; read-out: GI50) of 3 µM. For the same molecule, the CC50 [8, 28] was greater than 100 µM, the TGI ([8]; read-out: TGI) was greater than 100 µM and the GI50 ([8]; read-out: pGI50 (converted)) was 3.89 µM. The CC50 [8, 29] was greater than 100 µM, the TGI ([8]; read-out: pTGI (converted)) was greater than 100 µM and the growth at 0.01 µM [9] was 93%. The growth at 0.01 µM [10] was 88%, the growth at 0.01 µM [11] was 95% and the growth at 0.01 µM [12] was 95%. The growth at 0.1 µM [13] was 96%, the growth at 0.1 µM [14] was 93% and the growth at 0.1 µM [15] was 92%. The growth at 0.1 µM [16] was 103%, the growth at 0.1 µM [17] was 101% and the growth at 1 µM [18] was 89%. For the same molecule, the growth at 1 µM [19] was 75%, the growth at 1 µM [20] was 83% and the growth at 1 µM [21] was 75%. It also gave a growth at 1 µM [22] of 87%, a growth at 100 µM [23] of -34% and a growth at 100 µM [24] of -26%. It also gave a growth at 100 µM [25] of -17%, a growth at 100 µM [26] of -32% and a growth at 100 µM [27] of -24%.
